The values below come from US11999716B2, “WDR5 inhibitors and modulators” (priority 2018, dated 2024).

In the first assay the test system is MV4:11 human cancer cell lines. Briefly: Cellular viability / anti-proliferative activity, CellTiter-Glo, 5 day protocol. It counts as cell-based. Conditions: Homo sapiens, MV4-11, 120 h, MV4:11 cells; 5 day incubation; CellTiter-Glo; mean of minimum two replicates; read-out: GI50 on cellular proliferation of MV4:11 human cancer cell lines. The essentials:
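Compounds were tested over 22 two-fold dilutions starting at 30 μM in 0.3% DMSO, with 200 cells per well (7200 cells/mL). Viability was measured by CellTiter-Glo luminescence at day 5.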
`CCn1cc(-c2cc(CN3CCOC3=N)cc3c2CCN(Cc2cn(C)nc2C)C3=O)c(C(F)(F)F)n1` [Example 98, 2-((1,3-Dimethyl-1H-pyrazol-4-yl)methyl)-5-(1-ethyl-3-(trifluoromethyl)-1H-pyrazol-4-yl)-7-((2-iminooxazolidin-3-yl)methyl)-3,4-dihydroisoquinolin-1(2H)-one]: the GI50 is 207 nM.

`CCn1cc(-c2cc(Cn3ccnc3)cc3c2CCN([C@H](c2cc(OC)ccn2)C2CC2)C3=O)c(C(F)(F)F)n1` [Example 212, (S)-7-((1H-Imidazol-1-yl)methyl)-2-(cyclopropyl(4-methoxypyridin-2-yl)methyl)-5-(1-ethyl-3-(trifluoromethyl)-1H-pyrazol-4-yl)-3,4-dihydroisoquinolin-1(2H)-one]: the GI50 was below 50 nM.

With `Cc1nccn1Cc1cc2c(c(-c3cn(C)nc3C(F)(F)F)c1)CCN(Cc1cc(Br)cc3c1OCC3)C2=O` [Example 216, 2-((5-Bromo-2,3-dihydrobenzofuran-7-yl)methyl)-7-((2-methyl-1H-imidazol-1-yl)methyl)-5-(1-methyl-3-(trifluoromethyl)-1H-pyrazol-4-yl)-3,4-dihydroisoquinolin-1(2H)-one], the GI50 came out at 56 nM.

Turning to `Cc1nccn1Cc1cc2c(c(-c3cn(C)nc3C(F)(F)F)c1)CCN(Cc1cc(C3CC3)nn1C)C2=O` [Example 148, 2-((3-Cyclopropyl-1-methyl-1H-pyrazol-5-yl)methyl)-7-((2-methyl-1H-imidazol-1-yl)methyl)-5-(1-methyl-3-(trifluoromethyl)-1H-pyrazol-4-yl)-3,4-dihydroisoquinolin-1(2H)-one], the GI50 is below 50 nM.

As for `COc1ccnc(CN2CCc3c(cc(Cn4cc(F)sc4=N)cc3-c3cn(C)nc3C(F)(F)F)C2=O)c1` [Example 103, 7-((5-Fluoro-2-iminothiazol-3(2H)-yl)methyl)-2-((4-methoxypyridin-2-yl)methyl)-5-(1-methyl-3-(trifluoromethyl)-1H-pyrazol-4-yl)-3,4-dihydroisoquinolin-1(2H)-one], the GI50 was above 938 nM.

Turning to `COc1cc(CN2CCc3c(OC4CCC4)cc(Cn4ccn(C)c4=N)cc3C2=O)cc(OC)c1` [Example 69, 5-Cyclobutoxy-2-(3,5-dimethoxybenzyl)-7-((2-imino-3-methyl-2,3-dihydro-1H-imidazol-1-yl)methyl)-3,4-dihydroisoquinolin-1(2H)-one], the GI50 worked out at 502 nM.

Turning to `Cc1cc([C@H](C)N2CCc3c(OCC4CC4)cc(Cn4ccn(C)c4=N)cc3C2=O)ccc1F` [Example 78, (S)-5-(Cyclopropylmethoxy)-2-(1-(4-fluoro-3-methylphenyl)ethyl)-7-((2-imino-3-methyl-2,3-dihydro-1H-imidazol-1-yl)methyl)-3,4-dihydroisoquinolin-1(2H)-one], the GI50 was above 938 nM.

`CCn1cc(-c2cc(Cn3ccnc3C)cc3c2CCN([C@H](c2cc(OC)ccn2)C2CC2)C3=O)c(C(F)(F)F)n1` [Example 206, (S)-2-(cyclopropyl(4-methoxypyridin-2-yl)methyl)-5-(1-ethyl-3-(trifluoromethyl)-1H-pyrazol-4-yl)-7-((2-methyl-1H-imidazol-1-yl)methyl)-3,4-dihydroisoquinolin-1(2H)-one]: the GI50 was below 50 nM.

Take `CCn1cc(-c2cc(Cn3ccoc3=N)cc3c2CCN(Cc2cc(C)nn2C)C3=O)c(C(F)(F)F)n1` [Example 94, 2-((1,3-Dimethyl-1H-pyrazol-5-yl)methyl)-5-(1-ethyl-3-(trifluoromethyl)-1H-pyrazol-4-yl)-7-((2-iminooxazol-3(2H)-yl)methyl)-3,4-dihydroisoquinolin-1(2H)-one]: the GI50 is 159 nM.

On to `CCn1cc(-c2cc(Cn3ccnc3C)cc3c2CCN([C@H](c2cc(C)ccn2)C2CC2)C3=O)c(C(F)(F)F)n1` [Example 177, (S)-2-(Cyclopropyl(4-methylpyridin-2-yl)methyl)-5-(1-ethyl-3-(trifluoromethyl)-1H-pyrazol-4-yl)-7-((2-methyl-1H-imidazol-1-yl)methyl)-3,4-dihydroisoquinolin-1(2H)-one], for which the GI50 was below 50 nM.

Take `COc1ccnc([C@H](C)N2CCc3c(cc(Cn4ccnc4C)cc3-c3c[nH]nc3C)C2=O)c1` [Example 238, (S)-2-(1-(4-methoxypyridin-2-yl)ethyl)-7-((2-methyl-1H-imidazol-1-yl)methyl)-5-(3-methyl-1H-pyrazol-4-yl)-3,4-dihydroisoquinolin-1(2H)-one]: the GI50 is 227 nM.

For the molecule `CCc1nccn1Cc1cc2c(c(-c3ccc(F)cc3C)c1)CCN([C@H](c1cc(C)ccn1)C1CC1)C2=O` [Example 13, (S)-2-(Cyclopropyl(4-methylpyridin-2-yl)methyl)-7-((2-ethyl-1H-imidazol-1-yl)methyl)-5-(4-fluoro-2-methylphenyl)-3,4-dihydroisoquinolin-1(2H)-one], the GI50 came out at 105 nM.

Consider `CCn1cc(-c2cc(Cn3cnn(C)c3=N)cc3c2CCN([C@@H](C)c2cc(OC)ccn2)C3=O)c(C(F)(F)F)n1` [Example 152, (S)-5-(1-ethyl-3-(trifluoromethyl)-1H-pyrazol-4-yl)-7-((5-imino-1-methyl-1,5-dihydro-4H-1,2,4-triazol-4-yl)methyl)-2-(1-(4-methoxypyridin-2-yl)ethyl)-3,4-dihydroisoquinolin-1(2H)-one], for which the GI50 was below 50 nM.

For the molecule `COc1ccnc(CN2CCc3c(cc(CN4CCCC4=N)cc3-c3ccc(F)cc3C)C2=O)c1` [Example 114, 5-(4-Fluoro-2-methylphenyl)-7-((2-iminopyrrolidin-1-yl)methyl)-2-((4-methoxypyridin-2-yl)methyl)-3,4-dihydroisoquinolin-1(2H)-one], the GI50 is 129 nM.

As to `COc1ccnc([C@H](C)N2CCc3c(cc(Cn4ccnc4C)cc3-c3c[nH]nc3C(F)(F)F)C2=O)c1` [Example 237, (S)-2-(1-(4-methoxypyridin-2-yl)ethyl)-7-((2-methyl-1H-imidazol-1-yl)methyl)-5-(3-(trifluoromethyl)-1H-pyrazol-4-yl)-3,4-dihydroisoquinolin-1(2H)-one], the GI50 is below 50 nM.

As for `CCn1cc(-c2cc(Cn3ccn(C)c3=N)cc3c2CCN([C@@H](C)c2cc(OC)ccn2)C3=O)c(C(F)(F)F)n1` [Example 66, (S)-5-(1-Ethyl-3-(trifluoromethyl)-1H-pyrazol-4-yl)-7-((2-imino-3-methyl-2,3-dihydro-1H-imidazol-1-yl)methyl)-2-(1-(4-methoxypyridin-2-yl)ethyl)-3,4-dihydroisoquinolin-1(2H)-one], the GI50 was below 50 nM.

As for `Cc1ccnc([C@H](C2CC2)N2CCc3c(cc(Cn4cnn(C)c4=N)cc3-c3ccc(F)cc3C)C2=O)c1` [Example 126, (S)-2-(Cyclopropyl(4-methylpyridin-2-yl)methyl)-5-(4-fluoro-2-methylphenyl)-7-((5-imino-1-methyl-1,5-dihydro-4H-1,2,4-triazol-4-yl)methyl)-3,4-dihydroisoquinolin-1(2H)-one], the GI50 is below 50 nM.

For `COc1cc(CN2CCc3c(cc(Cn4ccoc4=N)cc3-c3ccc(F)cc3C)C2=O)cc(OC)c1` [Example 81, 2-(3,5-Dimethoxybenzyl)-5-(4-fluoro-2-methylphenyl)-7-((2-iminooxazol-3(2H)-yl)methyl)-3,4-dihydroisoquinolin-1(2H)-one], the GI50 came to 155 nM.

For `COc1ccnc([C@H](C)N2CCc3c(cc(Cn4ccnc4C)cc3-c3ccncc3C(F)(F)F)C2=O)c1` [Example 248, (S)-2-(1-(4-Methoxypyridin-2-yl)ethyl)-7-((2-methyl-1H-imidazol-1-yl)methyl)-5-(3-(trifluoromethyl)pyridin-4-yl)-3,4-dihydroisoquinolin-1(2H)-one], the GI50 came to 55 nM.

For `COc1ccnc(CN2CCc3c(cc(Cn4cnsc4=N)cc3-c3cn(C)nc3C(F)(F)F)C2=O)c1` [Example 130, 7-((5-Imino-1,2,4-thiadiazol-4(5H)-yl)methyl)-2-((4-methoxypyridin-2-yl)methyl)-5-(1-methyl-3-(trifluoromethyl)-1H-pyrazol-4-yl)-3,4-dihydroisoquinolin-1(2H)-one], the GI50 came to 845 nM.

For `COc1cc(CN2CCc3c(cc(CN4CCSC4=N)cc3-c3ccc(F)cc3C)C2=O)cc(OC)c1` [Example 100, 2-(3,5-Dimethoxybenzyl)-5-(4-fluoro-2-methylphenyl)-7-((2-iminothiazolidin-3-yl)methyl)-3,4-dihydroisoquinolin-1(2H)-one], the GI50 stood at 269 nM.

Turning to `Cc1cc([C@H](C)N2CCc3c(cc(CNc4cccc(=O)[nH]4)cc3-c3cn(C)nc3C(F)(F)F)C2=O)ccc1F` [Example 142, (S)-2-(1-(4-Fluoro-3-methylphenyl)ethyl)-5-(1-methyl-3-(trifluoromethyl)-1H-pyrazol-4-yl)-7-(((6-oxo-1,6-dihydropyridin-2-yl)amino)methyl)-3,4-dihydroisoquinolin-1(2H)-one], the GI50 is above 938 nM.

As for `CCn1cc(-c2cc(Cn3ccsc3=N)cc3c2CCN([C@@H](C)c2cc(OC)ccn2)C3=O)c(C(F)(F)F)n1` [Example 104, (S)-5-(1-Ethyl-3-(trifluoromethyl)-1H-pyrazol-4-yl)-7-((2-iminothiazol-3(2H)-yl)methyl)-2-(1-(4-methoxypyridin-2-yl)ethyl)-3,4-dihydroisoquinolin-1(2H)-one], the GI50 was below 50 nM.

Consider `COc1cc(CN2CCc3c(cc(Cn4ncnc4C)cc3-c3ccc(F)cc3C)C2=O)cc(OC)c1` [Example 144, 2-(3,5-Dimethoxybenzyl)-5-(4-fluoro-2-methylphenyl)-7-((5-methyl-1H-1,2,4-triazol-1-yl)methyl)-3,4-dihydroisoquinolin-1(2H)-one], for which the GI50 was above 938 nM.

Staying with this assay, now noted: Homo sapiens, MV4-11, 120 h, read-out: GI50 on cellular proliferation of MV4:11 human cancer cell lines.
On to `COc1ccnc([C@H](C2CC2)N2CCc3c(cc(Cn4ccnc4C)cc3-c3cn(C)nc3C(F)(F)F)C2=O)c1` [Example 251, (S)-2-(Cyclopropyl(4-methoxypyridin-2-yl)methyl)-7-((2-methyl-1H-imidazol-1-yl)methyl)-5-(1-methyl-3-(trifluoromethyl)-1H-pyrazol-4-yl)-3,4-dihydroisoquinolin-1(2H)-one], for which the GI50 is below 50 nM.
